Results taken from ChEMBL document CHEMBL4270560, “Novel curcumin analogue hybrids: Synthesis and anticancer activity” (Eur J Med Chem, 2018).
Active and inactive are the calls of the source. No cut-off for these calls is given here.

Legend:
[1] = tested on: SGC-7901; assay: Cell cycle arrest in human SGC7901 cells assessed as accumulation at G1 phase after 48 hrs by propidium iodide staining based flow cytometric analysis; assay type: functional
[2] = tested on: SGC-7901; assay: Induction of apoptosis in human SGC7901 cells assessed as necrotic cells at 800 nM after 48 hrs by Annexin V-FITC/propidium iodide staining based flow cytometric analysis (reference value: 0.052%); assay type: functional
[3] = tested on: SGC-7901; assay: Induction of apoptosis in human SGC7901 cells assessed as viable cells at 1000 nM after 48 hrs by Annexin V-FITC/propidium iodide staining based flow cytometric analysis (reference value: 95.9 to 96%); assay type: functional; conditions: SGC-7901, 48 h, read-out: Activity
[4] = tested on: SGC-7901; assay: Induction of apoptosis in human SGC7901 cells assessed as viable cells at 800 nM after 48 hrs by Annexin V-FITC/propidium iodide staining based flow cytometric analysis (reference value: 95.9%); assay type: functional; conditions: SGC-7901, 48 h, read-out: Activity
[5] = biological target: T1, Thioredoxin reductase (Homo sapiens) (UniProt Q16881+Q9NNW7+Q86VQ6); assay: Inhibition of TrxR in human SGC7901 cells assessed as JNK phosphorylation at 1200 nM after 48 hrs in presence of NAC by Western blot analysis; assay type: cell-based
[6] = biological target: T1, Thioredoxin reductase (Homo sapiens); assay: Inhibition of TrxR in human SGC7901 cells assessed as JNK phosphorylation at 600 to 1200 nM after 48 hrs by Western blot analysis; assay type: cell-based
[7] = tested on: SGC-7901; assay: Induction of apoptosis in human SGC7901 cells assessed as necrotic cells at 1200 nM after 48 hrs by Annexin V-FITC/propidium iodide staining based flow cytometric analysis (reference value: 0.052 to 0.304%); assay type: functional
[8] = tested on: SGC-7901; assay: Induction of apoptosis in human SGC7901 cells assessed as decrease in PARP level at 600 to 1200 nM after 48 hrs by Western blot analysis; assay type: functional, cell-based
[9] = tested on: SGC-7901; assay: Cell cycle arrest in human SGC7901 cells assessed as accumulation at S phase at 1200 nM after 48 hrs by propidium iodide staining based flow cytometric analysis (reference value: 33.30%); assay type: functional
[10] = tested on: SGC-7901; assay: Induction of mitochondrial membrane depolarization in human SGC7901 cells assessed as cells with mitochondrial membrane potential loss at 1000 nM after 48 hrs in presence of NAC by JC-1 staining based flow cytometric analysis (reference value: 1.65%); assay type: functional
[11] = tested on: SGC-7901; assay: Induction of apoptosis in human SGC7901 cells assessed as late apoptotic cells at 1000 nM after 48 hrs in presence of NAC by Annexin V-FITC/propidium iodide staining based flow cytometric analysis (reference value: 2.85%); assay type: functional
[12] = tested on: SGC-7901; assay: Induction of apoptosis in human SGC7901 cells assessed as necrotic cells at 1000 nM after 48 hrs in presence of NAC by Annexin V-FITC/propidium iodide staining based flow cytometric analysis (reference value: 0.304%); assay type: functional
[13] = tested on: SGC-7901; assay: Induction of apoptosis in human SGC7901 cells assessed as decrease in cyclin D1 level after 48 hrs by Western blot analysis; assay type: functional, cell-based
[14] = tested on: U-87 MG; assay: Antiproliferative activity against human U87 cells after 48 hrs by MTT assay; assay type: functional, cell-based, U-87MG ATCC
[15] = biological target: T1, Thioredoxin reductase (Homo sapiens); assay: Inhibition of TrxR in human SGC7901 cells assessed as induction of intracellular ROS generation at 800 to 1000 nM after 5 hrs in presence of NAC by DCFH-DA staining based flow cytometric analysis; assay type: cell-based
[16] = tested on: SGC-7901; assay: Induction of apoptosis in human SGC7901 cells assessed as late apoptotic cells at 800 nM after 48 hrs by Annexin V-FITC/propidium iodide staining based flow cytometric analysis (reference value: 1.73%); assay type: functional
[17] = tested on: SGC-7901; assay: Induction of apoptosis in human SGC7901 cells assessed as viable cells at 1000 nM after 48 hrs in presence of NAC by Annexin V-FITC/propidium iodide staining based flow cytometric analysis (reference value: 96%); assay type: functional; conditions: SGC-7901, 48 h, read-out: Activity
[18] = tested on: MGC-803; assay: Antiproliferative activity against human MGC803 cells after 48 hrs by MTT assay; assay type: functional, cell-based; conditions: MGC-803, 48 h
[19] = tested on: SGC-7901; assay: Antiproliferative activity against human SGC7901 cells after 48 hrs by MTT assay; assay type: functional, cell-based; conditions: SGC-7901, 48 h
[20] = tested on: SGC-7901; assay: Induction of apoptosis in human SGC7901 cells assessed as late apoptotic cells at 1000 nM after 48 hrs by Annexin V-FITC/propidium iodide staining based flow cytometric analysis (reference value: 1.73 to 2.85%); assay type: functional
[21] = tested on: SGC-7901; assay: Induction of apoptosis in human SGC7901 cells assessed as viable cells at 1200 nM after 48 hrs in presence of NAC by Annexin V-FITC/propidium iodide staining based flow cytometric analysis (reference value: 96%); assay type: functional; conditions: SGC-7901, 48 h, read-out: Activity
[22] = tested on: SGC-7901; assay: Cell cycle arrest in human SGC7901 cells assessed as accumulation at S phase at 800 nM after 48 hrs by propidium iodide staining based flow cytometric analysis (reference value: 33.30%); assay type: functional
[23] = tested on: SGC-7901; assay: Induction of mitochondrial membrane potential loss in human SGC7901 cells after 48 hrs by JC-1 staining based flow cytometric analysis; assay type: functional, cell-based
[24] = tested on: SGC-7901; assay: Cell cycle arrest in human SGC7901 cells assessed as accumulation at G2 phase at 800 nM after 48 hrs by propidium iodide staining based flow cytometric analysis (reference value: 18.77%); assay type: functional
[25] = tested on: SGC-7901; assay: Cell cycle arrest in human SGC7901 cells assessed as accumulation at G2 phase at 600 nM after 48 hrs by propidium iodide staining based flow cytometric analysis (reference value: 18.77%); assay type: functional
[26] = tested on: SGC-7901; assay: Cell cycle arrest in human SGC7901 cells assessed as accumulation at G1 phase at 800 nM after 48 hrs by propidium iodide staining based flow cytometric analysis (reference value: 47.93%); assay type: functional
[27] = tested on: SGC-7901; assay: Cell cycle arrest in human SGC7901 cells assessed as accumulation at G2 phase at 1200 nM after 48 hrs by propidium iodide staining based flow cytometric analysis (reference value: 18.77%); assay type: functional

T1 sequence (Q16881 whole entry, looked up): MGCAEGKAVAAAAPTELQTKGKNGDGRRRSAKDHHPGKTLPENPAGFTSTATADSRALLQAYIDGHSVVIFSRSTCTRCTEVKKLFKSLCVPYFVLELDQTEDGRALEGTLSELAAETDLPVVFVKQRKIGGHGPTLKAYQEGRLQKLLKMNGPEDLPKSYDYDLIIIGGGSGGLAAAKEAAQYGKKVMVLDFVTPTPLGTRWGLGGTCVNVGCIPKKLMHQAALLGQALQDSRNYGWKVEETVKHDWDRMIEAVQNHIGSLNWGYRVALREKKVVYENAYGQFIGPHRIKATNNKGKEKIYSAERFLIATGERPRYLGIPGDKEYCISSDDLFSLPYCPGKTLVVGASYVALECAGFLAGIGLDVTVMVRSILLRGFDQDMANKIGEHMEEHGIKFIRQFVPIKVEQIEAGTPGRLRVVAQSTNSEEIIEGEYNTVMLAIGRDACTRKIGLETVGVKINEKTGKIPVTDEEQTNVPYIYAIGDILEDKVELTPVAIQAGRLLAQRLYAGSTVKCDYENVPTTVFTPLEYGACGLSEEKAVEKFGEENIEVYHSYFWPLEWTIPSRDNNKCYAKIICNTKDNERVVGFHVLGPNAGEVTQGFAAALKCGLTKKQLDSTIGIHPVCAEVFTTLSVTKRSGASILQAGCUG
T1 sequence (Q86VQ6 whole entry, looked up): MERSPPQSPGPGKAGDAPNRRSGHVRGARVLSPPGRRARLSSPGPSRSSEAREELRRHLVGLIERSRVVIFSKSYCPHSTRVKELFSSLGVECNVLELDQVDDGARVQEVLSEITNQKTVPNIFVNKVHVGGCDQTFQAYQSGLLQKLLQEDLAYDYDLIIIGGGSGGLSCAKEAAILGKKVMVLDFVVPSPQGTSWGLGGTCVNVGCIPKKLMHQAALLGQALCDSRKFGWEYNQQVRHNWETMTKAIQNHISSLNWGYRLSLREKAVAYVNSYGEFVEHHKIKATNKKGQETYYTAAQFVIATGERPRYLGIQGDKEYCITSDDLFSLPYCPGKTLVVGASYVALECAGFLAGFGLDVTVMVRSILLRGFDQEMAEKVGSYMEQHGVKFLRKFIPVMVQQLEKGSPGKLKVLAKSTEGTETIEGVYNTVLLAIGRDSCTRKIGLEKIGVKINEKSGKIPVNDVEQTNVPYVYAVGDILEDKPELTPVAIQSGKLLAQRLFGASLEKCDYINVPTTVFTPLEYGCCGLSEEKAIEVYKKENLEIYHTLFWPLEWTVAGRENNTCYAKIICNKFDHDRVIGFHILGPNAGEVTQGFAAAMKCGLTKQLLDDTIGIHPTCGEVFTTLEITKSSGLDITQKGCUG
T1 sequence (Q9NNW7 whole entry, looked up): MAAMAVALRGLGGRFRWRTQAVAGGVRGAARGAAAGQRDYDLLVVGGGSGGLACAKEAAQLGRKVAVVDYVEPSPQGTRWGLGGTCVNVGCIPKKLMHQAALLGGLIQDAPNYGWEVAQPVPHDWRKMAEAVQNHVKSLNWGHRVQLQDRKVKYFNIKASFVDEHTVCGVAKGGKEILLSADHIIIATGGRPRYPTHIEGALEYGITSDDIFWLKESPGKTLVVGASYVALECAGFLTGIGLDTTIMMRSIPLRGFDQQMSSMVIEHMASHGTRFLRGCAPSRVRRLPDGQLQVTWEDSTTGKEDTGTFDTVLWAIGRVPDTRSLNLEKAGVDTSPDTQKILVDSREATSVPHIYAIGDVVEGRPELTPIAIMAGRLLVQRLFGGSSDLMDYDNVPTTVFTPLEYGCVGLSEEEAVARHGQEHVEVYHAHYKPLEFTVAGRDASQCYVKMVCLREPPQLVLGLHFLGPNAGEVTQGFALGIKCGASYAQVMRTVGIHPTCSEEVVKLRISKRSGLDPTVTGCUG

inhibition [5]: inactive | inhibition [6]: Active | IC50 [14]: 3930 nM | inhibition [15]: inactive | IC50 [18]: 560 nM | IC50 [19]: 1080 nM
Compound: COc1cc(OC)c2c(=O)c(OCCCOc3ccccc3/C=C/C(=O)/C=C/c3ccccn3)c(-c3cc(OC)c(OC)c(OC)c3)oc2c1
Activity [1]: Dose-dependent effect | Activity [2]: 0.425% | viability at 1 µM [3]: 50.1 to 59.6% | viability at 0.8 µM [4]: 66.8% | Activity [7]: 0.131 - 1.62% | Activity [8]: Active | Activity [9]: 36.26% | Activity [10]: 2.32% | Activity [11]: 2.84% | Activity [12]: 0.92% | Activity [13]: Dose-dependent effect | Activity [16]: 8.3% | viability at 1 µM [17]: 94.1% | Activity [20]: 7.92 - 24.2% | viability at 1.2 µM [21]: 74.1% | Activity [22]: 35.37% | Activity [23]: Dose-dependent effect | Activity [24]: 13.48% | Activity [25]: 15.61% | Activity [26]: 51.29% | Activity [27]: 17.95%
